Laboratory results reported in the NIST ThermoML archive (doi:10.1021/je800110r).
Several values for one entry are separate records, joined by “and”; a condition that tells them apart may be missing. Equal values may be shown once.

Details: Liquid, Vibrating tube method

CCCCCCCCCC [decane]
Details	mass density
283.14 K, 21786 kPa	752.1 kg/m3
283.14 K, 21835 kPa	752.2 kg/m3
283.14 K, 21866 kPa	752.3 kg/m3
283.14 K, 22948 kPa	752.7 kg/m3
283.14 K, 22974 kPa	752.9 kg/m3
283.14 K, 23083 kPa	752.9 kg/m3
283.14 K, 24091 kPa	753.6 kg/m3
283.14 K, 24111 kPa	753.6 kg/m3
283.14 K, 24206 kPa	753.6 kg/m3
283.14 K, 25452 kPa	754.4 kg/m3
283.14 K, 27407 kPa	755.5 kg/m3
283.14 K, 27430 kPa	755.5 kg/m3
283.14 K, 27471 kPa	755.7 kg/m3
283.14 K, 27497 kPa	755.6 kg/m3
283.14 K, 27531 kPa	755.7 kg/m3
283.14 K, 27558 kPa	755.6 kg/m3
283.14 K, 27588 kPa	755.8 kg/m3
283.14 K, 29091 kPa	756.5 kg/m3
283.14 K, 29172 kPa	756.6 kg/m3
283.14 K, 29227 kPa	756.6 kg/m3
283.14 K, 29531 kPa	756.9 kg/m3
283.14 K, 29628 kPa	756.9 kg/m3
283.14 K, 29720 kPa	756.8 kg/m3
283.14 K, 29749 kPa	756.9 kg/m3
283.14 K, 29785 kPa	756.9 kg/m3
283.14 K, 29818 kPa	757 kg/m3
283.14 K, 29843 kPa	756.9 kg/m3
283.14 K, 29867 kPa	757.1 kg/m3
283.14 K, 29895 kPa	757 kg/m3
283.14 K, 29928 kPa	757.2 kg/m3
283.14 K, 29961 kPa	757 kg/m3
283.14 K, 29990 kPa	757.1 kg/m3
283.14 K, 30019 kPa	757.1 kg/m3
283.14 K, 30044 kPa	757.1 kg/m3
283.14 K, 30081 kPa	757.1 kg/m3
283.14 K, 30115 kPa	757.2 kg/m3
283.14 K, 30145 kPa	757.1 kg/m3
283.14 K, 30807 kPa	757.7 kg/m3
283.14 K, 30934 kPa	757.6 kg/m3
283.14 K, 31526 kPa	758 kg/m3
283.14 K, 31540 kPa	758 kg/m3
283.14 K, 31581 kPa	758.1 kg/m3
283.14 K, 31898 kPa	758.1 kg/m3
283.14 K, 31921 kPa	758.2 kg/m3
283.14 K, 31938 kPa	758.2 kg/m3
283.14 K, 31958 kPa	758.3 kg/m3
283.14 K, 31979 kPa	758.2 kg/m3
283.14 K, 32000 kPa	758.3 kg/m3
283.14 K, 32020 kPa	758.2 kg/m3
283.14 K, 32038 kPa	758.2 kg/m3
283.14 K, 32070 kPa	758.2 kg/m3
283.14 K, 32106 kPa	758.4 kg/m3
283.14 K, 32127 kPa	758.3 kg/m3
283.14 K, 32164 kPa	758.3 kg/m3
283.14 K, 32190 kPa	758.4 kg/m3
283.14 K, 32578 kPa	758.6 kg/m3
283.14 K, 33321 kPa	759.1 kg/m3
283.14 K, 33347 kPa	759 kg/m3
283.14 K, 33367 kPa	759 kg/m3
283.14 K, 33396 kPa	759 kg/m3
283.14 K, 33425 kPa	758.9 kg/m3
283.14 K, 33445 kPa	759 kg/m3
283.14 K, 33471 kPa	759.1 kg/m3
283.14 K, 33494 kPa	759.1 kg/m3
283.14 K, 33514 kPa	759 kg/m3
283.14 K, 34282 kPa	759.5 kg/m3
283.14 K, 34384 kPa	759.6 kg/m3
283.14 K, 34405 kPa	759.6 kg/m3
283.14 K, 34424 kPa	759.7 kg/m3
283.14 K, 34465 kPa	759.7 kg/m3
283.15 K, 312 kPa	737.7 kg/m3 and 737.6 kg/m3
283.15 K, 314 kPa	737.5 kg/m3
283.15 K, 361 kPa	737.6 kg/m3
283.15 K, 417 kPa	737.6 kg/m3
283.15 K, 446 kPa	737.8 kg/m3
283.15 K, 603 kPa	737.9 kg/m3
283.15 K, 1468 kPa	738.4 kg/m3
283.15 K, 1599 kPa	738.6 kg/m3
283.15 K, 1655 kPa	738.6 kg/m3
283.15 K, 1727 kPa	738.5 kg/m3
283.15 K, 1798 kPa	738.8 kg/m3
283.15 K, 1897 kPa	738.7 kg/m3
283.15 K, 1959 kPa	738.9 kg/m3
283.15 K, 2028 kPa	738.8 kg/m3
283.15 K, 2118 kPa	738.9 kg/m3
283.15 K, 2175 kPa	739 kg/m3
283.15 K, 2229 kPa	739 kg/m3
283.15 K, 2291 kPa	739.1 kg/m3
283.15 K, 2327 kPa	739.1 kg/m3
283.15 K, 2370 kPa	739 kg/m3
283.15 K, 2425 kPa	739.1 kg/m3
283.15 K, 2520 kPa	739.2 kg/m3
283.15 K, 2614 kPa	739.3 kg/m3
283.15 K, 2634 kPa	739.3 kg/m3
283.15 K, 2647 kPa	739.4 kg/m3
283.15 K, 2708 kPa	739.4 kg/m3
283.15 K, 2730 kPa	739.4 kg/m3
283.15 K, 2749 kPa	739.3 kg/m3
283.15 K, 2767 kPa	739.4 kg/m3
283.15 K, 2789 kPa	739.4 kg/m3
283.15 K, 2807 kPa	739.5 kg/m3
283.15 K, 2822 kPa	739.5 kg/m3
283.15 K, 2835 kPa	739.4 kg/m3
283.15 K, 2864 kPa	739.6 kg/m3
283.15 K, 3136 kPa	739.7 kg/m3
283.15 K, 3226 kPa	739.7 kg/m3
283.15 K, 3273 kPa	739.9 kg/m3
283.15 K, 3287 kPa	739.8 kg/m3
283.15 K, 3296 kPa	739.8 kg/m3
283.15 K, 3307 kPa	739.9 kg/m3
283.15 K, 3341 kPa	739.9 kg/m3
283.15 K, 3352 kPa	739.8 kg/m3
283.15 K, 3361 kPa	739.8 kg/m3
283.15 K, 3373 kPa	739.9 kg/m3
283.15 K, 3380 kPa	740 kg/m3
283.15 K, 3390 kPa	739.9 kg/m3
283.15 K, 3400 kPa	739.8 kg/m3
283.15 K, 3408 kPa	740 kg/m3
283.15 K, 3417 kPa	739.9 kg/m3
283.15 K, 3426 kPa	740 kg/m3
283.15 K, 3434 kPa	739.9 kg/m3
283.15 K, 3443 kPa	739.8 kg/m3
283.15 K, 3452 kPa	740 kg/m3
283.15 K, 3461 kPa	739.9 kg/m3
283.15 K, 3471 kPa	740 kg/m3
283.15 K, 3485 kPa	740 kg/m3
283.15 K, 3496 kPa	739.9 kg/m3
283.15 K, 3507 kPa	740.1 kg/m3
283.15 K, 3517 kPa	740 kg/m3
283.15 K, 3528 kPa	739.9 kg/m3
283.15 K, 3539 kPa	740 kg/m3
283.15 K, 3552 kPa	740 kg/m3
283.15 K, 3563 kPa	740.1 kg/m3
283.15 K, 3575 kPa	740 kg/m3
283.15 K, 3586 kPa	740.2 kg/m3
283.15 K, 3601 kPa	740 kg/m3
283.15 K, 3612 kPa	740.1 kg/m3
